Entries after “also recorded” stand apart in the source; their conditions may differ.
What was measured:
E. coli CFT073 [1] = test: Antimicrobial activity assay in the presence of lipocalin 2; type: cell-based, Escherichia coli; settings: conjugate 100 nM, lcn2 1 μM, M9 minimal media, 37° C., 24 h
Procedure: The bacterial cultures were grown in modified M9 minimal medium (Blango, M. G.; Ott, E. M.; Erman, A.; Veranic, P.; Mulvey, M. A. Forced Resurgence and Targeting of Intracellular Uropathogenic Escherichia coli Reservoirs. PLoS One 2014, 9, e93327-e93335) (Na2HPO4 6.8 g/L, KH2PO4 3 g/L, NaCl 0.5 g/L, NH4Cl 1 g/L, 0.4% glucose, 2 mM MgSO4, 0.1 mM CaCl2, 0.2% casein amino acids, and 16.5 μg/mL of thiamine) overnight. […] The cultures were serially diluted to an OD600 value of 0.00001 in fresh modified M9 minimal medium. Lipocalin 2 (Lcn2) was diluted into PBS buffer to a concentration of 20 μM upon arrival and frozen at −20° C. until use. Bovine serum albumin (BSA, Sigma-Aldrich) was prepared in PBS buffer to achieve a concentration of 20 μM. […] The bacterial growth was determined by measuring OD600 using the plate reader. […] The resulting mean OD600 was reported, and the error bars were the standard deviation. […] In contrast, Lcn2 had no effect of the antibacterial activity of MGE-Amp, MGE-Amx, DGE-Amp, or DGE-Amx.

[2] = tested on: Salmonella enterica serovar Typhimurium (STM) IR715; test: Antibacterial activity assay, Salmonella Typhimurium; type: cell-based; settings: 50% MHB, 100 μM 2,2′-dipyridyl, 30° C., t=19 h
Procedure: FIGS. 12A and 12B show exemplary antibacterial activities of Ent-Amp, Ent-Amx, MGE-Amp, MGE-Amx, DGE-Amp, and DGE-Amx against Salmonella enterica serovar Typhimurium (STM) IR715 (50% MHB with 100 μM 2,2′-dipyridyl to provide conditions of iron limitation, 30° C., t=19 h). (FIG. 12A) Antibacterial activity of Amp and the Amp-containing conjugates (Ent-Amp, MGE-Amp, and DGE-Amp). […] (FIG. 12B) Antibacterial activity of Amx and the Amx-containing conjugates (Ent-Amx, MGE-Amx, and DGE-Amx).

E. coli CFT073 [3] = test: Antimicrobial activity assay, E. coli CFT073; type: cell-based, Escherichia coli; settings: Fe(III)-loaded versus apo conjugates, 50% MHB, 200 μM DP, 30° C., t=19 h
Procedure: (§1) Overnight cultures of the bacterial strains were prepared by inoculating 5 mL of LB with the bacterial freezer stocks and the cultures were incubated at 37° C. in a tabletop incubator shaker set at 150 rpm. The overnight culture grew to saturation and was diluted 1:100 into 5 mL of fresh LB medium containing DP (200 μM) and incubated at 37° C. with shaking at 150 rpm until OD600 reached 0.6. The cultures were subsequently diluted to an OD600 value of 0.001 in 50% MHB medium (11.5 g/L) with or without DP (200 μM). No antibiotic marker was included in these cultures. A 90-μL aliquot of the diluted culture was combined with a 10-μL aliquot of a 10× solution of the tested compounds in a 96-well plate, which was wrapped in […] and incubated at 30° C. with shaking at 150 rpm for 19 h. Bacterial growth was determined by measuring OD600 using a BIOTEK SYNERGY HT plate reader. Each well condition was prepared in duplicate, and at least three independent replicates were conducted on different days. The resulting mean OD600 are reported and the error bars are the standard deviation.
In another exemplary experiment, antibacterial activities of the conjugates were tested against E. coli CFT073 in 50% MHB at 30° C., t=19 h. DP (200 μM) was added to provide conditions of iron limitation.
In another exemplary experiment, antibacterial activities of Fe(III)-loaded or apo Ent-β-lactam conjugates (Ent-Amp and Ent-Amx) and their glucosylated derivatives (MGE-Amp, MGE-Amx, DGE-Amp, and DGE-Amx) against the uropathogenic strain E. coli CFT073 were tested in 50% MHB, 30° C., t=19 h. 2,2′-dipyridyl (DP, 200 μM) was added to provide conditions of iron limitation.

E. coli K-12 = test: Antimicrobial activity assay, E. coli K-12; type: cell-based, Escherichia coli; settings: inhibition attributed to iron deprivation
Procedure: as §1
In an exemplary experiment, antibacterial activities of the conjugates were tested against E. coli K-12 in 50% MHB at 30° C., t=19 h. 2,2′-dipyridyl (DP, 200 μM) was added to provide conditions of iron limitation.

[4] = tested on: uropathogenic E. coli and non-pathogenic E. coli; test: Mixed culture assays (summary), uropathogenic and non-pathogenic E. coli; type: cell-based, Escherichia coli; settings: uropathogenic with non-pathogenic E. coli
Description: No antibiotic marker was included in these cultures.

various E. coli strains = test: Antibacterial activity against a panel of E. coli strains; type: cell-based, Escherichia coli; settings: 6 strains of E. coli (K-12, B, H9049, 25922, UTI89, CFT073)
Procedure: as §1
Ampicillin and amoxicillin are β-lactam antibiotics that have periplasmic targets in Gram-negative bacteria and inhibit cell wall biosynthesis. The antibacterial activity of Ent-ampicillin and Ent-amoxicillin conjugates 44 and 45 was evaluated in vitro against a panel of Gram-negative and positive-bacteria.
Select Ent-β-lactam conjugates (Ent-Amp and Ent-Amx) and their glucosylated derivatives (MGE-Amp, MGE-Amx, DGE-Amp, and DGE-Amx) were tested against 6 strains of E. coli. Four of them are non-pathogenic strains, namely K-12, B, H9049, and 25922, and the other two are uropathogenic clinical isolates, namely UTI89 and CFT073.

E. coli UTI89 = test: Competition assay with native siderophores, E. coli UTI89; type: cell-based, Escherichia coli; settings: conjugate 100 nM, varied Ent, MGE or DGE, 50% MHB, 200 μM DP, 30° C., t=19 h
Procedure: Ent was synthesized following a literature procedure^55 and stored as DMSO stock solution at −20° C. MGE and DGE were prepared from Ent using MceC and IroB as described for MGE-PEG3-N3 and DGE-PEG3-N3.
(§2) In an exemplary experiment, select conjugates (Ent-Amp, MGE-Amp, and DGE-Amp) with select native siderophores (Ent, MGE, and DGE) were tested against the uropathogenic strain E. coli UTI89 in 50% MHB, t=19 h, 30° C. […] The concentration of the conjugates was fixed at 100 nM, and the concentration of the native siderophores was varied. […] These observations indicate that Ent, MGE, Ent-Amp, and MGE-Amp may enter via both FepA and IroN with different efficiency, but DGE and DGE-Amp may only enter via IroN.
as §2, with “In another” for “In an”, “100 nM” for “100 nM,”

E. coli CFT073 [5] = test: Competition assay with native siderophores, E. coli CFT073; type: cell-based, Escherichia coli; settings: conjugate 100 nM, varied Ent, MGE or DGE, 50% MHB, 200 μM DP, 30° C., t=19 h
Procedure: These assays were performed following the general procedure described herein except that varying concentrations of Ent, MGE, or DGE, each of which was unmodified, were mixed with Ent-Amp, Ent-Amx, MGE-Amp, MGE-Amx, DGE-Amp, or DGE-Amx. Ent was synthesized following a literature procedure^55 and stored as DMSO stock solution at −20° C. MGE and DGE were prepared from Ent using MceC and IroB as described for MGE-PEG3-N3 and DGE-PEG3-N3.
(§3) In another exemplary experiment, select conjugates (Ent-Amp, MGE-Amp, and DGE-Amp) with select native siderophores (Ent, MGE, and DGE) were tested against the uropathogenic strain E. coli CFT073 in 50% MHB, t=19 h, 30° C. 2,2′-dipyridyl (DP, 200 μM) was added to provide conditions of iron limitation. The concentration of the conjugates was fixed at 100 nM and the concentration of the native siderophores was varied.
as §3, with “(Ent-Amx, MGE-Amx,” for “(Ent-Amp, MGE-Amp,”, “DGE-Amx)” for “DGE-Amp)”, “DP (200” for “2,2′-dipyridyl (DP, 200”

[6] = tested on: E. coli ATCC 33475 (ent-); type: cell-based, Escherichia coli
Procedure: General microbiology methods are as described herein or according to processes known in the art. […] Bacterial growth was assayed by measuring OD600 using a BioTek Synergy HT plate reader. Each well condition was prepared in duplicate and three independent replicates of each assay were conducted on different days. The resulting mean OD600 are reported and the error bars are the standard deviation of the mean obtained from the three independent replicates.
Three non-pathogenic E. coli strains were employed that are defective in enterobactin synthesis, enterobactin transport, or ferric enterobactin utilization in growth recovery assays. E. coli ATCC 33475 (ent-) cannot biosynthesize enterobactin, but retains the capacity to import and metabolize the siderophore.^71 E. coli H1187 (fepA-) lacks the outer membrane enterobactin receptor. E. coli K-12 JW0576 (fes-) can accumulate ferric enterobactin, but cannot release the iron because it is deficient in the enterobactin esterase Fes. As a result of these defects in iron metabolism, all three strains grow poorly under conditions of iron limitation.^71 The iron chelator 2,2′-dipyridyl (dipyridyl, DP) was used to generate iron-deficient conditions and promote expression of siderophore transport machinery in the growth recovery assays.

SMILES: CC1(C)SC2C(NC(=O)C(NC(=O)CCCc3cn(CCOCCOCCOCCNC(=O)c4cc(O)c(O)c(C(=O)NC5COC(=O)C(NC(=O)c6cc(C7OC(CO)C(O)C(O)C7O)cc(O)c6O)COC(=O)C(NC(=O)c6cccc(O)c6O)COC5=O)c4)nn3)c3ccc(O)cc3)C(=O)N2C1C(=O)O (stereo not drawn) [MGE-Amx]
- effect of lipocalin-2 (lcn2) on antibacterial activity (E. coli CFT073 [1]): unaffected; also recorded: no effect; also recorded: not attenuated
- antibacterial activity relative to the unmodified antibiotic [2]: enhanced antibacterial activity relative to unmodified Amx
- effect of preloading Fe(III) on antibacterial activity (E. coli CFT073 [3]): no effect
- concentrations at which E. coli K-12 was inhibited (E. coli K-12): micromolar concentrations
- strain-specific growth inhibition in the mixed culture assays [4]: specifically inhibited the growth of the uropathogenic E. coli
- antibacterial activity against uropathogenic compared to non-pathogenic E. coli (various E. coli strains): greater antibacterial activity against the uropathogenic E. coli compared to non-pathogenic E. coli
- attenuation of antibacterial activity by native siderophores (E. coli UTI89): attenuated by Ent, MGE, or DGE
- attenuation of antibacterial activity by native siderophores (E. coli CFT073 [5]): attenuated by Ent, MGE, or DGE

SMILES: O=C(NCCOCCOCCOCCNC(=O)c1cc2cc3c4c(c2oc1=O)CCCN4CCC3)c1cc(O)c(O)c(C(=O)N[C@H]2COC(=O)[C@@H](NC(=O)c3cccc(O)c3O)COC(=O)[C@@H](NC(=O)c3cccc(O)c3O)COC2=O)c1 [conjugate 34, N^3-((3S,7S,11S)-7,11-Bis(2,3-dihydroxybenzamido)-2,6,10-trioxo-1,5,9-trioxacyclododecan-3-yl)-4,5-dihydroxy-N^1-(1-oxo-1-(11-oxo-2,3,5,6,7,1-hexahydro-1H-pyrano[2,3-f]pyrido[3,2,1-ij]quinolin-10-yl)-5,8,11-trioxa-2-azatridecan-13-yl)isophthalamide]
- toxicity to E. coli ([6]; under iron limitation): no toxicity

SMILES: O=C(NCCOCCOCCOCCC(=O)N1CCN(c2cc3c(cc2F)c(=O)c(C(=O)O)cn3C2CC2)CC1)c1cc(O)c(O)c(C(=O)N[C@H]2COC(=O)[C@@H](NC(=O)c3cccc(O)c3O)COC(=O)[C@@H](NC(=O)c3cccc(O)c3O)COC2=O)c1 [conjugate 35, 7-(4-(1-(3-(((3S,7S,11S)-7,11-Bis(2,3-dihydroxybenzamido)-2,6,10-trioxo-1,5,9-trioxacyclododecan-3-yl)carbamoyl)-4,5-dihydroxyphenyl)-1-oxo-5,8,11-trioxa-2-azatetradecan-14-oyl)piperazin-1-yl)-1-cyclopropyl-6-fluoro-4-oxo-1,4-dihydroquinoline-3-carboxylic acid]
- effect on E. coli growth in the absence of DP [6]: concentration-dependent inhibition of E. coli growth

SMILES: O=C(NCCCCCC(=O)N1CCN(c2cc3c(cc2F)c(=O)c(C(=O)O)cn3C2CC2)CC1)c1cc(O)c(O)c(C(=O)N[C@H]2COC(=O)[C@@H](NC(=O)c3cccc(O)c3O)COC(=O)[C@@H](NC(=O)c3cccc(O)c3O)COC2=O)c1 [conjugate 40, 7-(4-(6-(3-(((3S,7S,11S)-7,11-Bis(2,3-dihydroxybenzamido)-2,6,10-trioxo-1,5,9-trioxacyclododecan-3-yl)carbamoyl)-4,5-dihydroxybenzamido)hexanoyl)piperazin-yl)-1-cyclopropyl-6-fluoro-4-oxo-1,4-dihydroquinoline-3-carboxylic acid]
- effect on E. coli growth in the absence of DP [6]: concentration-dependent inhibition of E. coli growth

SMILES: CN[C@H](CC(C)C)C(=O)N[C@H]1C(=O)N[C@@H](CC(N)=O)C(=O)N[C@H]2C(=O)N[C@H]3C(=O)N[C@H](C(=O)N[C@H](C(=O)O)c4cc(O)cc(O)c4-c4cc3ccc4O)[C@H](O)c3ccc(c(Cl)c3)Oc3cc2cc(c3O[C@@H]2OC(CO)[C@@H](O)C(O)C2O[C@H]2CC(C)(N)[C@H](O)C(C)O2)Oc2ccc(cc2Cl)[C@H]1O (stereo partly drawn) [vancomycin, reference compound]
- activity against E. coli ([6]; over the concentration range employed): inactive against E. coli

Source: patent US9902986B2, “Enterobactin conjugates and uses thereof” (Massachusetts Institute of Technology, priority 2013, dated 2018)
